Data on 11 molecules can be found in ChEMBL document CHEMBL1130589, “Synthesis and evaluation of a novel series of phosphodiesterase IV inhibitors. A potential treatment for asthma” (Bioorg Med Chem Lett, 1998).

Each structure is given as a SMILES string.

As a reminder, the IC50 is the midpoint of a concentration-inhibition curve. A high value points to a need for much substance. A word on the inhibition: it is how much of the control response was suppressed.

Common to all, as to assay type: protein assay
Assay [1] has as its target T1, Phosphodiesterase 4 (Homo sapiens, UniProt P27815+Q08499+Q07343+Q08493). In words: Inhibition of phosphodiesterase 4.
Assay [2] has as its target T1, Phosphodiesterase 4. In words: (§1) Inhibition of Rolipram binding to PDE4 at 1 uM.
In assay [3] the target is T1, Phosphodiesterase 4. The assay is described as §1. The source holds these as a separate data set.
The target in assay [4] is T1, Phosphodiesterase 4. In words: Relative inhibition of phosphodiesterase 4 activity and Rolipram binding to PDE4.
The target of assay [5] is T1, Phosphodiesterase 4. In words: Inhibition of Rolipram binding to PDE4 at 10 uM.
Assay [6] addresses T1, Phosphodiesterase 4. In words: Inhibition of Rolipram binding to PDE4 at 100 uM.
The target in assay [7] is T1, Phosphodiesterase 4. In words: Inhibition of Rolipram binding to PDE4.

With `CCn1cc(C(=O)N/N=C/c2ccccc2Cl)c(=O)c2cc(C(F)(F)F)ccc21`, the IC50 against Phosphodiesterase 4 [1] turned out to be 1100 nM; on Phosphodiesterase 4 [2], 10000 nM.

Molecule `CCn1cc(C(=O)NC2CCc3cc(NC(C)=O)ccc32)c(=O)c2cnc(N3CCCC3)nc21` (configuration not stated) had an inhibition on Phosphodiesterase 4 [3] of 17%. The 50% inhibitory concentration (IC50) on Phosphodiesterase 4 [1] was 1800 nM. The Ratio on Phosphodiesterase 4 [4] is less than 1.

At Phosphodiesterase 4 [5], `CC1CCc2cc(F)cc3c(=O)c(C(=O)NCCc4ccncc4)cn1c23` (configuration not stated) showed an inhibition of 8%. Also, at Phosphodiesterase 4 [1], the half-maximal inhibitory concentration (IC50) is 7000 nM. In addition, the Ratio at Phosphodiesterase 4 [4] was less than 0.7.

On Phosphodiesterase 4 [6], `CCn1cc(C(=O)N(C)CCc2ccccc2)c(=O)c2cc(C(F)(F)F)ccc21` came in with an inhibition of 15%. Besides, the IC50 at Phosphodiesterase 4 [1] was found to be 49000 nM. The Ratio at Phosphodiesterase 4 [4] was less than 0.49.

On Phosphodiesterase 4 [5], `CCn1cc(C(=O)NCCc2ccncc2)c(=O)c2cc(C(F)(F)F)ccc21` showed an inhibition of 24%. Also, the half-maximal inhibitory concentration (IC50) on Phosphodiesterase 4 [1] was 1500 nM. In addition, on Phosphodiesterase 4 [4], the Ratio was less than 0.15.

Molecule `CCn1cc(C(=O)NC2CCc3cc(OC)c(OC)cc32)c(=O)c2cc(C(F)(F)F)ccc21` (configuration not stated) displayed an inhibition at Phosphodiesterase 4 [3] of 22%. The molecule also came in with an IC50 against Phosphodiesterase 4 [1] of 900 nM. Further, the Ratio on Phosphodiesterase 4 [4] was less than 0.9.

`CCn1cc(C(=O)NCCc2ccncc2)c(=O)c2cc3c(cc21)OCO3` came in with an inhibition at Phosphodiesterase 4 [5] of 31%. Also, the IC50 on Phosphodiesterase 4 [1] was found to be 23000 nM. The Ratio at Phosphodiesterase 4 [4] is 1.

Consider `CCCn1cc(C(=O)NCCc2ccncc2)c(=O)c2cc(C(F)(F)F)ccc21.Cl`, for which the 50% inhibitory concentration (IC50) against Phosphodiesterase 4 [1] came to 1700 nM; on Phosphodiesterase 4 [7], 10000 nM. Besides, the Ratio on Phosphodiesterase 4 [4] amounted to 0.17.

The molecule `CCn1cc(C(=O)NCCc2ccncc2)c(=O)c2cnc(N3CCCC3)nc21` displayed an inhibition at Phosphodiesterase 4 [3] of 11%. For the same molecule, at Phosphodiesterase 4 [1], the half-maximal inhibitory concentration (IC50) was determined as 1200 nM. For the same molecule, the Ratio on Phosphodiesterase 4 [4] was less than 1.

In the case of `CCn1cc(C(=O)NCCc2ccccc2)c(=O)c2cc(C(F)(F)F)ccc21`, the inhibition on Phosphodiesterase 4 [3] is 8%. At Phosphodiesterase 4 [1], this molecule registered an IC50 of 600 nM. Further, the Ratio on Phosphodiesterase 4 [4] is less than 0.6.

In the case of `CCn1cc(C(=O)NCCc2ccncc2)c(=S)c2cc(C(F)(F)F)ccc21`, the inhibition at Phosphodiesterase 4 [3] was determined as 15%. The molecule further had a 50% inhibitory concentration (IC50) on Phosphodiesterase 4 [1] of 460 nM. Moreover, the Ratio on Phosphodiesterase 4 [4] is less than 0.46.
